# Paper PMC4527730, “A Pan-GTPase Inhibitor as a Molecular Probe” (PLoS ONE, 2015)
# Where two headings read alike, the source gives them in different places.
# Tests used:
# [1] = tested on: integrin VLA-4 on U937 FPRΔST cells; design: method as in PMID 23382385; conditions: cited from earlier work
# H-Ras = H-Ras (Homo sapiens, UniProt P01112); test: Multiplex bead-based flow cytometry dose-response of fluorescent guanine nucleotide binding; conditions: read-out: EC50 H-Ras; BODIPY-FL GTP binding; 2 h at 4°C
# Protocol: (§1) Briefly, individual GST-GTPases were separately attached to glutathione microsphere beads that were labeled with varying intensity of red fluorescent dye, and subsequently combined. The buffer contains 30 mM HEPES (pH 7.2), 150 mM KCl, 20 mM NaCl, 0.1% BSA, 1 mM DTT, 1 mM EDTA and 0.1% NP-40. […] To study whether the compounds are slow binders, BODIPY^- FL GTP was added either immediately or 2 h after compound addition. […] The curves were fitted to the sigmoidal dose-response equation using GraphPad Prism. Percent response was calculated as the ratio of (sample MCF–negative control MCF) / (positive control MCF–negative control MCF).
# Cdc42 Q61L = Cdc42 Q61L (Homo sapiens, UniProt P60953, Q61L); test: as above; conditions: read-out: EC50 Cdc42 Q61L; BODIPY-FL GTP binding; 2 h at 4°C
# Protocol: as §1
# Cdc42 = Cdc42 (Homo sapiens, UniProt P60953); test: as above; conditions: read-out: EC50 Cdc42; BODIPY-FL GTP binding; 2 h at 4°C
# Protocol: as §1
# Rab7 = Rab7 (Canis lupus familiaris, UniProt P18067); test: as above; conditions: read-out: EC50 Rab7; BODIPY-FL GTP binding; 2 h at 4°C
# Protocol: as §1
# H-Ras G12V = H-Ras G12V (Homo sapiens, UniProt P01112, G12V); test: as above; conditions: read-out: EC50 H-Ras G12V; BODIPY-FL GTP binding; 2 h at 4°C
# Protocol: as §1
# [2] = tested on: GTPases (H-Ras, H-Ras G12V, Cdc42, Cdc42 Q61L, Rac1, Rac1 Q61L, RhoA, Rab7); test: Multiplex dose-response assay, statements across the GTPase panel; conditions: for inhibitory activity on BODIPY-FL GTP binding across all GTPases tested (in words): SAR versus compound 1
# Protocol: (§2) Briefly, individual GST-GTPases were separately attached to glutathione microsphere beads that were labeled with varying intensity of red fluorescent dye, and subsequently combined. The buffer contains 30 mM HEPES (pH 7.2), 150 mM KCl, 20 mM NaCl, 0.1% BSA, 1 mM DTT, 1 mM EDTA and 0.1% NP-40. For Rho A and Rac1, 1 mM EDTA was replaced with 1 mM MgCl2 to stabilize the protein. […] To study whether the compounds are slow binders, BODIPY^- FL GTP was added either immediately or 2 h after compound addition. […] The curves were fitted to the sigmoidal dose-response equation using GraphPad Prism. Percent response was calculated as the ratio of (sample MCF–negative control MCF) / (positive control MCF–negative control MCF).
# Rac1 Q61L = Rac1 Q61L (Homo sapiens, UniProt P63000, Q61L); test: Multiplex bead-based flow cytometry dose-response of fluorescent guanine nucleotide binding; conditions: read-out: EC50 Rac1 Q61L; BODIPY-FL GTP binding; 2 h at 4°C
# Rac1 = Rac1 (Homo sapiens, UniProt P63000); test: as above; conditions: read-out: EC50 Rac1; BODIPY-FL GTP binding; 2 h at 4°C; 1 mM MgCl2
# Protocol: as §2
# [3] = tested on: integrin VLA-4 on U937 FPRΔST cells; test: Integrin activation assay (LDV-FITC binding); format: cell-based; conditions: LDV-FITC 4 nM, fMLFF 100 nM
# Protocol: The procedure followed the protocols described previously. U937 FPRΔST cells (0.4~0.8 x 10^6 cells/mL) were continuously stirred with a magnetic stir bar at 500 rpm in a test tube. The fluorescence was recorded on a FACScan flow cytometer. The baseline fluorescence of the cells was established for 30 s. Then LDV-FITC at 4 nM was added. After the fluorescence stabilized at ~120 s, the chemotactic ligand fMLFF at 100 nM was added for stimulation. […] All the concentrations given were the final concentrations. The percent inhibition was calculated according to Equation 1 (Supporting Information).
# RhoA = RhoA (Homo sapiens, UniProt P61586); test: Multiplex bead-based flow cytometry dose-response of fluorescent guanine nucleotide binding; conditions: read-out: EC50 RhoA; BODIPY-FL GTP binding; 2 h at 4°C; 1 mM MgCl2
# Protocol: as §2
# [4] = Solubility in PBS and assay media; format: physicochemical
# Protocol: page 7: conclusion, the available data support the idea that compound CID1067700 has non-classical competitive character. […] Solubility was measured in phosphate buffered saline (PBS) at room temperature (23 °C). PBS by definition is 137 mM NaCl, 2.7 mM KCl, 10 mM sodium phosphate dibasic, 2 mM potassium phosphate [monobasic and a pH of 7.4. Detection was based on UV absorbance. […] Solubility was also assessed in the each of the four media used in the individual assays. […] Table 1S. […] Stability, depicted as closed circles in the graph, was assessed at room temperature (23 °C) in PBS (no antioxidants or other protectants and DMSO concentration below 0.1%). Stability data is depicted in Fig. S8 showing the loss of compound with time over a 48 h period with a minimum of 6 time points and providing the percent remaining compound at end of the 48 h period. Under these conditions, 77% of 1 remains after 48 hours. The degradation has not been further characterized.
# Chain of Cdc42 Q61L (P60953 whole entry Q61L): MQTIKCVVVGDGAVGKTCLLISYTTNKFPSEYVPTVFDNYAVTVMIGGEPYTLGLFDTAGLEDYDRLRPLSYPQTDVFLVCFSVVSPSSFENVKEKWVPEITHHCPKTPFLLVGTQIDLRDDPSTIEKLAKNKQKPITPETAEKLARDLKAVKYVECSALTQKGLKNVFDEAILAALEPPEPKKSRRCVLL
# Chain of H-Ras (P01112 whole entry): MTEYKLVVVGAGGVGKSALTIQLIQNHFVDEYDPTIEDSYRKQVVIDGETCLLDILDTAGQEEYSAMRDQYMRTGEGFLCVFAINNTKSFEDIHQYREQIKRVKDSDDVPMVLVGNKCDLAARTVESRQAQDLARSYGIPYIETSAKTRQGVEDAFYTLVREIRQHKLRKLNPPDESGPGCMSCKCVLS
# Chain of Rab7 (P18067 2-207 limits assumed): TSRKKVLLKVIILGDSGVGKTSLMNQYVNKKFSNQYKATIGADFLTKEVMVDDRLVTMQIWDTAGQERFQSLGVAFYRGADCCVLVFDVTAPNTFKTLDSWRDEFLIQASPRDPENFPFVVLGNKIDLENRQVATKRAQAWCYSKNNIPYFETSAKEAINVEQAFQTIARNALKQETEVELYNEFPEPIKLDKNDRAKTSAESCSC
# Chain of H-Ras G12V (P01112 whole entry G12V): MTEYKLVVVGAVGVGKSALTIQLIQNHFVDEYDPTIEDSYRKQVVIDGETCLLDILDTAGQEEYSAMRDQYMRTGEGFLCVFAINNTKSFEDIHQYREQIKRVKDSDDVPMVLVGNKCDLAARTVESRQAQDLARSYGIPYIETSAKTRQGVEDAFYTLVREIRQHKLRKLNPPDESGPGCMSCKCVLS
# Chain of Cdc42 (P60953 whole entry): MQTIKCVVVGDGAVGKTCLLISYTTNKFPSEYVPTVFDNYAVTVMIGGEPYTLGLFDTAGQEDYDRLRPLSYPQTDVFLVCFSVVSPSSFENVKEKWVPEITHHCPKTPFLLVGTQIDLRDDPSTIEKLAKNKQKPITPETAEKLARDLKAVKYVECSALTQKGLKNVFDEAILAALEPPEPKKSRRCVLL
# Chain of RhoA (P61586 whole entry): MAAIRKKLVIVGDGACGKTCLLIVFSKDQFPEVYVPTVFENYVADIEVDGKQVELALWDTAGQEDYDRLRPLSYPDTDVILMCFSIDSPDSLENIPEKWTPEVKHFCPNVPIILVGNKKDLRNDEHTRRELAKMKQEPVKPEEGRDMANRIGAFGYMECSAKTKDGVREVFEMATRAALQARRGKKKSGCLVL
SMILES,EC50 (H-Ras),EC50 (Cdc42 Q61L),EC50 (Cdc42),EC50 (H-Ras G12V),EC50 (Rac1 Q61L),EC50 (Rac1),EC50 (RhoA),loss in potency across all the GTPases ([2]; versus compound 1),"Solubility, Dose Response-buffer ([4]; 30mM HEPES, pH 7.5, 100mM KCl, 20mM NaCl, 0.01% (v/v) NP-40)","solubility ([4]; 30mM HEPES, pH 7.5, 100mM KCl, 20mM NaCl, 0.01% (v/v) NP-40, read-out: Solubility, Dose Response-buffer)","Solubility, EGFR degradation assay medium ([4]; DMEM/F-12)","solubility ([4]; DMEM/F-12, read-out: Solubility, EGFR degradation assay medium)","Solubility, LDV-FITC assay buffer ([4]; RPMI 1640 + 10% HI-FBS)","solubility ([4]; RPMI 1640 + 10% HI-FBS, read-out: Solubility, LDV-FITC assay buffer)",integrin activation [1],EC50 (Rab7),inhibitory activity on BODIPY-FL GTP binding across all GTPases tested (in words) [2],integrin VLA-4 activation (LDV-FITC binding after fMLFF) [3]
COc1ccc(C2CC(c3ccccc3)=NN2c2ccc(S(N)(=O)=O)cc2)cc1 (stereo not shown) [CID2950007],–,–,–,–,–,–,–,–,–,–,–,–,–,–,decrease the integrin activation in a dose-dependent fashion,–,–,–
COC(=O)c1c(NC(=S)NC(=O)c2ccccc2)sc2c1CC(C)(C)OC2 [Compound 2],> 1000 µM,> 1000 µM,> 1000 µM,> 1000 µM,–,–,–,–,–,–,–,–,–,–,–,> 1000 µM,loss of activity,–
O=C(NC(=S)Nc1sc2c(c1C(=O)O)CCOC2)c1ccccc1 [Compound 3],0.17 ± 0.094 µM,0.13 ± 0.078 µM,0.11 ± 0.064 µM,0.12 ± 0.12 µM,0.23 ± 0.22 µM,0.18 ± 0.13 µM,0.23 ± 0.21 µM,–,–,–,–,–,–,–,–,–,did not cause a significant change in potency,dose-dependently blocked integrin activation
CC1(C)Cc2c(sc(NC(=O)Cc3ccccc3)c2C(=O)O)CO1 [Compound 4],> 1000 µM,> 1000 µM,> 1000 µM,> 1000 µM,–,–,–,–,–,–,–,–,–,–,–,> 1000 µM,inactive,–
CC1(C)Cc2c(sc(NC(=S)Nc3ccccc3)c2C(=O)O)CO1 [Compound 5],–,–,–,–,–,–,–,–,–,–,–,–,–,–,–,–,inactive,–

# Further lines, with some results ahead:
EC50 (H-Ras),EC50 (Cdc42 Q61L),EC50 (Cdc42),EC50 (H-Ras G12V),EC50 (Rac1 Q61L),EC50 (Rac1),EC50 (RhoA),loss in potency across all the GTPases ([2]; versus compound 1),"Solubility, Dose Response-buffer ([4]; 30mM HEPES, pH 7.5, 100mM KCl, 20mM NaCl, 0.01% (v/v) NP-40)","solubility ([4]; 30mM HEPES, pH 7.5, 100mM KCl, 20mM NaCl, 0.01% (v/v) NP-40, read-out: Solubility, Dose Response-buffer)","Solubility, EGFR degradation assay medium ([4]; DMEM/F-12)","solubility ([4]; DMEM/F-12, read-out: Solubility, EGFR degradation assay medium)","Solubility, LDV-FITC assay buffer ([4]; RPMI 1640 + 10% HI-FBS)","solubility ([4]; RPMI 1640 + 10% HI-FBS, read-out: Solubility, LDV-FITC assay buffer)",SMILES,integrin activation [1],EC50 (Rab7),inhibitory activity on BODIPY-FL GTP binding across all GTPases tested (in words) [2],integrin VLA-4 activation (LDV-FITC binding after fMLFF) [3]
0.44 ± 0.41 µM,0.47 µM,17 µM,0.49 ± 0.48 µM,0.4 ± 0.02 µM,0.35 ± 0.05 µM,0.33 ± 0.03 µM,more than 2 fold,–,–,–,–,–,–,CC1(C)Cc2c(sc(NC(=O)NC(=O)c3ccccc3)c2C(=O)O)CO1 [Compound 6],–,0.31 ± 0.09 µM,–,–
0.62 ± 1 µM,14.8 ± 20.8 µM,46.8 ± 66 µM,0.43 ± 0.68 µM,0.42 ± 0.65 µM,0.6 ± 0.8 µM,0.48 ± 0.74 µM,–,> 93 µg/mL,> 198 µM,> 93 µg/mL,> 198 µM,> 93 µg/mL,> 198 µM,CC1(C)Cc2c(sc(NC(=S)NC(=O)c3ccccc3Br)c2C(=O)O)CO1 [Compound 10],–,0.43 ± 0.68 µM,–,–
